Molecules are shown by their SMILES. Non-standard residues stand in square brackets, D forms with d. Residues, ends and D or L forms follow the SMILES beside them. Nle = CCCC[C@H](N)C(=O)O

Assay [1] addresses T1, catalytic subunit β1 of a proteasome (caspase-like activity) (Homo sapiens, UniProt P28072).
T1 construct: purchased Bioscience
The note with it: reported by Kaiser et al., Chem. Bio. Chem., 2004; cited from earlier work.

For assay [2], the system named is ecDHFR protein (fusion protein of an ecDHFR protein and GFP through a HA tag). It counts as cell-based, human. The note with it: HeLa cells, 24 hours after addition, vs DMSO control.
The target of assay [3] is T2, catalytic subunit β2 of the proteasome (trypsin-like activity) (Homo sapiens, UniProt Q99436).
T2 construct: purchased Bioscience
The assay is described as follows: 20S Proteasome StressXpress Assay Kit, AMC substrate, β2. It counts as biochemical. As to the method: (§1) In Reference Example 2, the proteasome inhibitory activity of TMP-CANDDY_DMT and the affinity of TMP-CANDDY_DMT with a proteasome were evaluated. As a positive control, MG-132 as a proteasome inhibitor was used.
(§2) For evaluation, 20S Proteasome StressXpress™ Assay Kit Gold (Bioscience) was used. AMC was measured by using Multi-Detection Microplate Reader (Synergy HT, BIO-TEK). The AMC was produced by cleaving the C-terminus of an AMC-binding proteasome fluorescence substrate specific to β subunits of a 20S proteasome, including β5 (chymotrypsin-like activity), β2 (trypsin-like activity), and β1 (caspase-like activity). The measuring wavelengths were 360 nm for excitation light (Ex.), and 460 nm for fluorescence (Em.).
(§3) In Reference Example 6, as in Reference Example 2, a proteasome inhibitory activity of TMP-CANDDY_ALLN and an affinity of TMP-CANDDY_ALLN with a proteasome were evaluated.

For a further assay, the target named is T3, 20S proteasome (Homo sapiens, UniProt P28072+P28074+Q99436).
T3 construct: purchased Bioscience
The assay is described as follows: Affinity with a proteasome, evaluated from the 20S proteasome activity assay. It counts as biochemical. The settings on record: concluded from the concentration dependent inhibitory activity. As to the method:
as §1, §2, §3

In assay [4] the target is T1, catalytic subunit β1 of a proteasome (caspase-like activity). The assay is described as follows: 20S Proteasome StressXpress Assay Kit, AMC substrate, β1. Format: biochemical. As for the experimental part:
as §1, §2, §3

Assay [5] addresses T4, catalytic subunit β5 of the proteasome (chymotrypsin-like activity) (Homo sapiens, UniProt P28074).
T4 construct: purchased Bioscience
The assay is described as follows: 20S Proteasome StressXpress Assay Kit, AMC substrate, β5. Format: biochemical. As for the experimental part:
as §1, §2, §3

The test system of assay [6] is ecDHFR protein (fusion protein of an ecDHFR protein and GFP through a HA tag). The assay is described as follows: Western blot of degradation of forcibly expressed ecDHFR protein in HeLa cells. It counts as cell-based, human. On the technique in general: Immunoblotting shows a protein as a band on a membrane.
Assay [7] deals with senescence-associated acidic β-galactosidase (SA-β-gal) inducing TIG3 cells. The assay is described as follows: FACS analysis of SA-β-gal in doxorubicin senescence-induced TIG3 cells (anti-aging action). Format: cell-based, human. The note with it: doxorubicin 150 nM alone vs no doxorubicin. As to the method:
In Example 5, an anti-aging action in a senescence-associated acidic β-galactosidase (SA-β-gal) inducing TIG3 cells (human embryonic fibroblast) in which TIBC-CANDDY_MLN had been added was evaluated by FACS analysis.
TIG3 cells as normal cells were seeded in a 24-well plate at a cell density of 8×10^4 cells/well, and then cultured under conditions of 37° C. and 5 vol % CO2 for 16 hours.
After 16 hours from cell seeding, doxorubicin was added to each well at 150 nM/well to induce cellular senescence. As a medium, a serum-free medium (37° C.) in which 1 mass % L-glutamine solution (Sigma-Aldrich) was added to D-MEM (high D-glucose, phenol red, sodium pyruvate (Wako Pure Chemical Industries, Ltd.)) was used. It is noted that the L-glutamine solution was added immediately before use. After the addition of doxorubicin, culture was performed under conditions of 37° C. and 5 vol % CO2 for 24 hours.
After 24 hours from induction of senescence, TIBC-CANDDY_MLN was added to TIG3 cells as follows. As a medium, a serum-free medium (37° C.) in which 1 mass % L-glutamine solution (Sigma-Aldrich) was added to D-MEM (high D-glucose, phenol red, sodium pyruvate (Wako Pure Chemical Industries, Ltd.)) was used. It is noted that the L-glutamine solution was added immediately before use. A DMSO solution containing TIBC-CANDDY_MLN was mixed with the medium so that the concentration of DMSO was 1 vol %, and added to each well at 500 μL/well, and cultured under conditions of 37° C. and 5 vol % CO2 for 48 hours. As a control, DMSO was used.
For quantification of SA-β-gal as a senescence marker, a commercially available kit (Cellular Senescence Detection Kit-SPiDER-βGal (DOJINDO LABORATORIES)) was used. […]
A BD FACSCanto™ II (BD Biosciences) was used for flow cytometry to detect SA-β-gal labeled with FITC. […] A histogram of the FITC strength was created by an analysis software FlowJo™ (TOMY Digital Biology Co., Ltd.), and the senescence suppressing action by TIBC-CANDDY_MLN was evaluated from a shift in the histogram.

For `CCCC[C@@H](C=O)NC(=O)[C@H](CC(C)C)NC(=O)[C@H](CC(C)C)NC(C)=O` [ALLN, Calpain Inhibitor I] (Ac-Leu-Leu-[Nle]-aldehyde), the “inhibition of β1” value in assay [1] was “not inhibited”.

On to `CCCC[C@H](NC(=O)[C@H](CC(C)C)NC(=O)[C@H](CC(C)C)NC(C)=O)C(=O)NCCCCCCNC(=O)COc1c(OC)cc(Cc2cnc(N)nc2N)cc1OC` [TMP-CANDDY_ALLN], for which, in assay [2], the “degradation (knockdown) of the ecDHFR protein (shift of GFP/DsRed graph, FACS)” value is “degradation of the ecDHFR protein was induced”. In assay [3], the “concentration dependence of inhibitory activity against β2” value is listed as “in a concentration dependent manner” and the “proteasome inhibitory activity against β2 compared with the reference proteasome inhibitor” value is listed as “the inhibitory activity was weakened”. For the same compound, the “affinity with a proteasome” value at 20S proteasome is “had an affinity with a proteasome”. In addition, in assay [4], the “concentration dependence of inhibitory activity against β1” value is listed as “in a concentration dependent manner”. Also, in assay [5], the “concentration dependence of inhibitory activity against β5” value was “in a concentration dependent manner” and the “proteasome inhibitory activity against β5 compared with the reference proteasome inhibitor” value was “the inhibitory activity was weakened”.

With `COc1nc(NCCCCCCNC(=O)COc2c(OC)cc(Cc3cnc(N)nc3N)cc2OC)nc(OC)n1` [TMP-CANDDY_DMT], the “degradation (knockdown) of the ecDHFR protein (shift of GFP/DsRed graph, FACS)” value in assay [2] is recorded as “degradation of the ecDHFR protein was induced”. The “amount of the ecDHFR protein (Western blot)” value in assay [6] (24 hours after addition, cycloheximide 50 μg/mL added at 12 hours) is recorded as “reduced”. In assay [6] (both TMP-CANDDY_DMT and bortezomib added, compared with TMP-CANDDY_DMT alone), the “degradation of the ecDHFR protein when bortezomib is added as well” value is recorded as “degradation of the ecDHFR protein was inhibited”. Moreover, in assay [3], the “concentration dependence of inhibitory activity against β2” value is recorded as “increased in a concentration dependent manner” and the “proteasome inhibitory activity against β2 compared with the reference proteasome inhibitor” value was “significantly lower proteasome inhibitory activity as compared with MG-132”. Also, the “affinity with a proteasome” value at 20S proteasome is “moderate affinity”. In assay [4], the “concentration dependence of inhibitory activity against β1” value is given as “increased in a concentration dependent manner” and the “proteasome inhibitory activity against β1 compared with the reference proteasome inhibitor” value is listed as “significantly lower proteasome inhibitory activity as compared with MG-132”. In addition, in assay [5], the “concentration dependence of inhibitory activity against β5” value was “increased in a concentration dependent manner” and the “proteasome inhibitory activity against β5 compared with the reference proteasome inhibitor” value is reported as “significantly lower proteasome inhibitory activity as compared with MG-132”.

Consider `COc1cccc2c1C(=O)c1c(O)c3c(c(O)c1C2=O)C[C@@](O)(C(=O)CO)C[C@@H]3O[C@H]1C[C@H](N)[C@H](O)[C@H](C)O1` [doxorubicin, reference compound], for which the “shift to SA-β-gal (senescence marker) positive (FACS histogram)” value in assay [7] is “a shift to SA-β-gal (senescence marker) positive was observed”.

The values are drawn from patent US11007269B2, “P53 degradation inducing molecule and pharmaceutical composition” (Tokyo University of Science Foundation, priority 2016, dated 2021).
